Measured values reported in patent US9833431B2, “Pharmaceutical combinations for the treatment of cancer” (Pitney Pharmaceuticals Pty Limited, priority 2013, dated 2017).
Where “and” joins values, the source holds several entries; their conditions need not be identical. Identical values can stand only once. Entries after “also recorded” stand apart in the source; their conditions may differ.

Columns and labels:
[1] = test system: 28 malignant cell lines; test: SRB cytotoxicity assay, summary over malignant cell lines; type: cell-based; conditions: all 28 malignant cell lines tested, with the exception of CFPAC-1 and SKOV-3; summary of Table 3; read-out: IC50 proliferation
Procedure: (§1) All cell lines described herein were purchased from ATCC. […] Control cultures were treated with ethanol alone.

[2] = test system: DU-145; test: SRB cytotoxicity assay, DU-145 cells; type: cell-based; conditions: Homo sapiens, DU-145, malignant, prostatic, 72 h
Procedure: as §1

[3] = test system: U251; test: SRB cytotoxicity assay, U251 cells; type: cell-based; conditions: Homo sapiens, U-251, U251, malignant, glial, 72 h
Procedure: as §1

[4] = test system: LNCaP; test: SRB cytotoxicity assay, LNCaP cells; type: cell-based, human; conditions: 72 h
Procedure: as §1

[5] = test system: A2780; test: SRB cytotoxicity / proliferation assay, A2780 cells; conditions: for Mpl Alone, Mpl (x/X) Inhibition: A2780 Ovarian, 72 h, x=events, X=experiments
Procedure: (§2) Cells were seeded in 96-well plates (2,000-3,000 cells/well) and culture overnight prior to treatment with MPL. Control cultures were treated with ethanol alone.
(§3) Cells were seeded in 96-well plates (2,000-3,000 cells/well), treated with the indicated compound(s) for 72 h, fixed, washed and stained with 100 μl of 0.4% (w/v) SRB dissolved in 1% acetic acid. Unbound dye was removed by five washes with 1% acetic acid before air-drying.
Cell viability was conducted according to standard Trypan Blue method. Cell proliferation was assessed using the sulforhodamine B (SRB) assay. For viability experiments, cells were seeded in 6 well plates, whereas for proliferation assays cells were grown in 96 well plates. Following over-night attachment, cells were treated with the intended drug at various concentrations either alone or in combination with monepantel (MPL) for 72 h. Parallel to this, cells treated with MPL alone were also deployed for comparative purposes. Following incubation for 72 h in a standard cell culture incubator, effect of mono and combined drug treatments on cell viability and/or cell proliferation was assessed through using Trypan Blue or SRB assays respectively.
For viability assay, at the end of treatment period, cells were washed with PBS, trypsinized and counted using Trypan blue and hemocytometer. For the SRB assay cells were fixed, washed and stained with 100 μl of 0.4% (w/v) SRB dissolved in 1% acetic acid. Unbound dye was removed by five washes with 1% acetic acid before air drying. […] Monepantel (gift by Novartis, Basel, Switzerland) was dissolved in 100% ethanol and then diluted with the cell culture media.

[6] = test system: IGROV-1; test: SRB cytotoxicity assay, IGROV-1 cells; type: cell-based; conditions: Homo sapiens, IGROV-1, malignant, ovarian, 72 h
Procedure: as §1

[7] = test system: HT-29 5m11; test: SRB cytotoxicity assay, HT-29 5m11 cells; type: cell-based; conditions: Homo sapiens, read-out: LC50 (the source's name)
Procedure: as §1

[8] = test system: SKOV-3; test: SRB cytotoxicity assay, SKOV-3 cells; type: cell-based; conditions: Homo sapiens, SK-OV-3, SKOV-3, malignant, ovarian, 72 h
Procedure: as §1

[9] = test system: HEK; test: SRB cytotoxicity assay, HEK cells; type: cell-based; conditions: Homo sapiens, HEK293, immortalised, nephritic, 72 h
Procedure: as §1

[10] = test system: HUVEC, human fetal astrocytes and HOSE cells; test: SRB cytotoxicity assay, summary over early/primary passage cells; type: cell-based; conditions: summary of Table 3, read-out: IC50 proliferation
Procedure: as §1

[11] = test system: AsPC1; test: SRB cytotoxicity assay, AsPC1 cells; type: cell-based, human; conditions: 72 h
Procedure: as §1

[12] = in vivo; cited from earlier work
[13] = dosage of 1000 mg of MPL per kg of body weight per 24 hours; mammals; cited from earlier work
[14] = test system: HT-29; test: cells; type: cell-based
Procedure: as §1

[15] = test system: CFPAC-1; test: SRB cytotoxicity assay, CFPAC-1 cells
Procedure: as §2
Cytotoxicity was assessed using the sulforhodamine B (SRB) assay and reported as half maximal inhibitory concentration (IC50; Table 3). Cells were seeded in 96-well plates (2,000-3,000 cells/well), treated with the indicated compound(s) for 72 h, fixed, washed and stained with 100 μl of 0.4% (w/v) SRB dissolved in 1% acetic acid. Unbound dye was removed by five washes with 1% acetic acid before air-drying.
(§4) MPL (5 μM) and combination drugs were applied for 72 h unless indicated.

[16] = test system: U87; test: SRB cytotoxicity assay, U87 cells; type: cell-based, human; conditions: 72 h
Procedure: as §1

[17] = test system: 3T3 (fibroblast); test: SRB cytotoxicity assay, 3T3 cells; type: cell-based; conditions: immortalised, mesenchymal, 72 h
Procedure: as §1

[18] = test system: MDA-MB-231; test: SRB cytotoxicity assay, MDA-MB-231 cells; type: cell-based; conditions: MDA-MB-231, malignant, breast
Procedure: as §1

[19] = test system: Human Fetal Astrocytes; test: SRB cytotoxicity assay, human fetal astrocytes; type: cell-based; conditions: Astrocyte, non-malignant, glial, 72 h
Procedure: as §1

[20] = test system: MCF-7; test: SRB cytotoxicity assay, MCF-7 cells; type: cell-based; conditions: Homo sapiens, MCF7, 72 h, MCF-7, malignant, breast
Procedure: as §1

[21] = test system: immortalized cell lines and the CFPAC-1 and SKOV-3 cell lines; test: SRB cytotoxicity assay, summary over immortalized lines; type: cell-based; conditions: all immortalized cell lines and CFPAC-1 and SKOV-3; summary of Table 3; read-out: IC50 proliferation
Procedure: as §1

[22] = test system: YOU; test: SRB cytotoxicity assay, YOU cells; type: cell-based, human; conditions: 72 h
Procedure: as §1

[23] = test system: C170; test: SRB cytotoxicity assay, C170 cells; type: cell-based
Procedure: as §1

[24] = test system: HOSE; test: SRB cytotoxicity assay, HOSE non-malignant control cells; conditions: for Mpl Alone, Mpl (x/X) Inhibition: 5 μM MPL, x=events, X=experiments; for cytotoxicity of MPL alone: HOSE control cells, Table 6 footnote 3
Procedure: All cell lines described herein were purchased from ATCC. Cells were seeded in 96-well plates (2,000-3,000 cells/well) and culture overnight prior to treatment with MPL. Control cultures were treated with ethanol alone.
as §3
Corresponding cytotoxicity of the major metabolite MPL-SO2 has also been tested where indicated. […] HUVEC, human fetal astrocytes and HOSE cells are non-transformed, non-immortalized and non-malignant, freshly isolated/low passage number cell populations, from apparently healthy non-diseased tissue. These healthy cell populations were included in the experimental series as controls for non-specific toxicity. Both MPL and MPL-SO2 were suspended in ethanol and applied in final concentrations of 0.5 to 1% ethanol in the respective culture media.
In order to evaluate the effect of MPL on the in vitro efficacy of an established drug was evaluated using cell viability and cell proliferation assays. Cell viability was conducted according to standard Trypan Blue method. Cell proliferation was assessed using the sulforhodamine B (SRB) assay. For viability experiments, cells were seeded in 6 well plates, whereas for proliferation assays cells were grown in 96 well plates. Following over-night attachment, cells were treated with the intended drug at various concentrations either alone or in combination with monepantel (MPL) for 72 h. Parallel to this, cells treated with MPL alone were also deployed for comparative purposes. Following incubation for 72 h in a standard cell culture incubator, effect of mono and combined drug treatments on cell viability and/or cell proliferation was assessed through using Trypan Blue or SRB assays respectively.
For viability assay, at the end of treatment period, cells were washed with PBS, trypsinized and counted using Trypan blue and hemocytometer. For the SRB assay cells were fixed, washed and stained with 100 μl of 0.4% (w/v) SRB dissolved in 1% acetic acid. Unbound dye was removed by five washes with 1% acetic acid before air drying. […] Monepantel (gift by Novartis, Basel, Switzerland) was dissolved in 100% ethanol and then diluted with the cell culture media. Other agents employed in the study were purchased either from Sigma Australia or Sapphire Australia, prepared and preserved for cell culture use according to supplier instructions.
as §4

[25] = test system: REN; test: SRB cytotoxicity assay, REN cells; type: cell-based, human; conditions: 72 h
Procedure: as §1

[26] = test system: CHO; test: SRB cytotoxicity assay, CHO cells; type: cell-based; conditions: Cricetulus griseus, immortalised, ovarian, 72 h
Procedure: as §1

[27] = test system: Hep3B; test: SRB cytotoxicity assay, Hep3B cells; type: cell-based, human; conditions: for cytotoxic effect of MPL alone: Hep3B cells
Procedure: as §1

[28] = test system: SKOV-1; test: SRB cytotoxicity assay, SKOV-1 cells
Procedure: as §3, §4

[29] = test system: 1A9; test: SRB cytotoxicity assay, 1A9 cells; type: cell-based; conditions: Homo sapiens, 1A9, malignant, ovarian, 72 h
Procedure: as §1

[30] = test system: PET; test: SRB cytotoxicity assay, PET cells; type: cell-based, human; conditions: 72 h
Procedure: as §1

In the case of C[C@](C#N)(COc1cc(C#N)ccc1C(F)(F)F)NC(=O)c1ccc(SC(F)(F)F)cc1 [MPL, N-[(1S)-1-cyano-2-(5-cyano-2-trifluoromethyl-phenoxy)-1-methyl-ethyl]-4-trifluoromethylsulfanyl-benzamide], the IC50 [1] is reported as 2 to 25 µM, the IC50 [2] is reported as 23 µM and the IC50 [3] is reported as 17 ± 1.2 µM. The IC50 ([4]; Homo sapiens, LNCaP, malignant, prostatic, SRB) was 7.3 µM, the “Mpl Alone, Mpl (x/X) Inhibition” value ([4]; LNCAP Prostate, 5 μM MPL, x=events, X=experiments) was 1/1 and the “Mpl Alone, Mpl (x/X) Inhibition” value ([5]; 5 μM MPL, Table 6) was 6/6^2. The “Mpl Alone, Mpl (x/X) Inhibition” value ([5]; 5 μM MPL, Table 7) was “(4/4)”, the “Mpl Alone, Mpl (x/X) Inhibition” value ([5]; 5 or 10 μM MPL, Table 8 lower panel) was “(5/5)^” and the “Mpl Alone, Mpl (x/X) Inhibition” value ([5]; 5 or 10 μM MPL, Table 8 upper panel) was “(3/3)”. It also gave an IC50 ([5]; Homo sapiens, A2780, 72 h) of 10 ± 3.8 µM, an IC50 [6] of 4.4 ± 0.3 µM and a CC50 [7] of 10.4 µM. The IC50 [8] was 31.2 ± 0.8 µM, the IC50 [9] was 34.6 ± 0.9 µM and the IC50 [10] was greater than 85 µM. The “Mpl Alone, Mpl (x/X) Inhibition” value ([11]; AsPC-1 Pancreatoma, 5 μM MPL, x=events, X=experiments) was 1/2, the IC50 ([11]; Homo sapiens, AsPC1, malignant, pancreatic, SRB) was 7.2 ± 0.3 µM and the single-dose toxicity [12] was > 2000 mg per kg of body weight. For the same compound, the clinical tolerance [13] was “well tolerated”, the “significant cytotoxic effect of MPL alone” value ([14]; HT29 cells, MPL (5 μM), two experiments) was “no significant cytotoxic effect” and the CC50 ([14]; Homo sapiens, HT-29, HT29 cells, read-out: LC50 (the source's name)) was 5.9 µM. The IC50 ([14]; Homo sapiens, HT-29, malignant, colorectal, SRB, 72 h) was 5.9 ± 0.2 µM, the “Mpl Alone, Mpl (x/X) Inhibition” value ([15]; CFPAC-1 Pancreatoma, 5 μM MPL, 72 h, x=events, X=experiments) was 1/10 and the “experiments with significant cytotoxic effect of MPL alone” value ([15]; CFPAC-1 cells, MPL (5 μM)) was 1 of 10. The “experiments with cytotoxic effect of MPL alone” value ([15]; CFPAC-1 cells, MPL (10 μM), 72 h, data not shown) was 4 of 9, the IC50 ([15]; Homo sapiens, CFPAC-1, 72 h) was 30.1 ± 5.5 µM and the IC50 ([16]; Homo sapiens, U-87 MG, U87, malignant, glial, SRB) was 18 ± 7.1 µM. For the same compound, the “Mpl Alone, Mpl (x/X) Inhibition” value ([16]; U87 Glioblastoma, 5 μM MPL, x=events, X=experiments) was 1/1, the IC50 [17] was 12.4 ± 0.4 µM and the IC50 ([18]; Homo sapiens, MDA-MB-231, 72 h) was 23.8 µM. For the same compound, the IC50 ([18]; 72 h) was 25.8 ± 0.2 µM, the IC50 [19] was 85.6 ± 2.7 µM and the IC50 [20] was 15.5 µM. For the same compound, the IC50 [21] was 12 to 35 µM, the IC50 ([22]; Homo sapiens, YOU, malignant, mesothelial, SRB) was 23 µM and the “Mpl Alone, Mpl (x/X) Inhibition” value ([22]; YOU Mesothelioma, 5 μM MPL, x=events, X=experiments) was 2/2. For the same compound, the “significant cytotoxic effect of MPL alone” value ([23]; C170 cells, MPL (5 μM)) was “one of two experiments”, the IC50 ([23]; Homo sapiens, C170, malignant, colorectal, SRB, 72 h) was roughly 20 µM and the “Mpl Alone, Mpl (x/X) Inhibition” value ([24]; HOSE (Ovarian) control, Table 6) was 2/9^3. The “Mpl Alone, Mpl (x/X) Inhibition” value ([24]; HOSE (Ovarian), 72 h, Table 7) was “(0/4)”, the “cytotoxic effect of MPL alone” value ([24]; HOSE cells, FIG. 22 Rows 2 (fluorouracil) and 5 (paclitaxel)) was “small but significant cytotoxic effect” and the “significant cytotoxic effect of MPL alone” value ([24]; HOSE cells, MPL 2.5 μM, 1/1 experiments) was “did not induce a significant cytotoxic effect”. For the same compound, the “significant cytotoxic effect of MPL alone” value ([24]; HOSE cells, MPL 5 μM, 3/3 experiments) was “did not induce a significant cytotoxic effect”, the “cytotoxicity of MPL alone” value ([24]; flutamide experiment) was 3% and the “cytotoxicity of MPL alone” value ([24]; oxaliplatin experiment) was 5%. For the same compound, the IC50 ([24]; Homo sapiens, 72 h) was greater than 100 µM, the IC50 ([25]; Homo sapiens, REN, malignant, mesothelial, SRB) was 2500 ± 200 nM and the “Mpl Alone, Mpl (x/X) Inhibition” value ([25]; REN Mesothelioma, 5 μM MPL, x=events, X=experiments) was 2/2. For the same compound, the IC50 [26] was 34.6 ± 0.8 µM, the “Mpl Alone, Mpl (x/X) Inhibition” value ([27]; Hep3B Hepatoma, 5 μM MPL, 48 h, x=events, X=experiments) was 12/12 and the “cytotoxic effect of MPL alone” value ([27]; MPL 2.5 μM, 48 h) was “does not display a cytotoxic effect; also recorded: does not exert a cytotoxic effect”. The “cytotoxic effect of MPL alone” value ([27]; MPL 5 μM, 48 h) was “significant cytotoxic effect and potent effect and 12 of 12”, the IC50 ([27]; Homo sapiens, Hep3B, malignant, hepatic, SRB, 72 h) was 15.8 µM and the “A) Single treatment, one symbol per experiment” value ([28]; SKOV-1, MPL (5 μM), 72 h) was “✓✓✓”. For the same compound, the “significant cytotoxic effect of MPL alone” value ([28]; SKOV-1 cells, MPL 5 μM, 3/3 experiments) was “significant cytotoxic effect”, the IC50 [29] was 2500 ± 500 nM and the IC50 ([30]; Homo sapiens, PET, malignant, mesothelial, SRB) was 26 µM. The “Mpl Alone, Mpl (x/X) Inhibition” value ([30]; PET Mesothelioma, 5 μM MPL, x=events, X=experiments) was 2/2.
